Test results as given in patent US9701685B2, “Spiropyrrolidines as MDM2 inhibitors” (HUDSON BIOPHARMA INC., priority 2014, dated 2017).

What was measured:
SJSA-1 = test: Cell proliferation inhibition (CCK-8) against SJSA-1; assay type: cell-based; conditions: Homo sapiens, SJSA-1, 120 h, SJSA-1 human osteosarcoma cells, 5 days
Description: Cellular data of selected compounds against SW480 and SJSA-1 was conducted according to the following protocol.
Cells in the logarithmic growth phase were seeded into 96-well plates (Corning, 3599; 180 μL/well; 3000 cells/well for both SW480 and SJSA-1 cell lines) and cultured in an incubator (Thermo, 3111) for 24 h. Cells were then treated in triplicate by adding 20 μL/well solution containing different concentrations of the tested compounds in 5% CO2 at 37° C. for 5 days. After that, cells were treated for additional 4 h by adding 10 μL/well Cell Counting Kit-8 (CCK-8; DojinDo, CK04) solution. Finally, the absorbance was read at 450 nm with a microplate reader spectra-MAX190 (Molecular Devices, Sunnyvale, Calif.). The IC50 value was determined with SofeMax Pro, a software equipped in this reader. The cell proliferation inhibition rate was calculated as: proliferation inhibition (%)=[1-(A450 treated/A450 control)]×100%.
All the tested compounds could be dissolved in DMSO at 10^−2 M (as stock solution). […] The compounds were diluted at 9 3-fold serial concentrations beginning at the initial concentration of 10 μM (i.e., the highest final concentration to treat the cells). The detailed drug dilution protocol is: Add 5 μL stock solution (10^−2 M) into 495 μL medium, transfer 125 μL of the resulting solution (100 μM) into 250 μL medium, and repeat this till the 9th resulting concentration of 15.2 nM. Pipet 20 μL of each drug dilution into cell plates.

GST-tag full length MDM2 = GST-tag full length MDM2 (Homo sapiens (Human), UniProt Q00987); test: MDM2-p53 TR-FRET Binding Assays; conditions: MDM2 / biotin p53 peptide
Chain of GST-tag full length MDM2 (Q00987 whole entry): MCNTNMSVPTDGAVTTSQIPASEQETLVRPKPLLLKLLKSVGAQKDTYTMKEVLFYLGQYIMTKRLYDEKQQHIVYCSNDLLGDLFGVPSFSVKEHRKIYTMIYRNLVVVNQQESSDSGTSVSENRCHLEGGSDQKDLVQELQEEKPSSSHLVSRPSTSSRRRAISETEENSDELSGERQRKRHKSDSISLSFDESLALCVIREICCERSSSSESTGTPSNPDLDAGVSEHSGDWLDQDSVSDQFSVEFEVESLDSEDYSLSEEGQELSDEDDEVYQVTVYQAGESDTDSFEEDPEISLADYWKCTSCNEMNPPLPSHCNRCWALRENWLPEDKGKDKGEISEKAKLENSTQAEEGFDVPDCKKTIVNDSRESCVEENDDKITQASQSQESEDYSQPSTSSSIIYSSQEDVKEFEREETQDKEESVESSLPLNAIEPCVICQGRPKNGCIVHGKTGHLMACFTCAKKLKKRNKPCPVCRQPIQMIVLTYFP
From the text: MDM2-p53 TR-FRET Binding Assays
Examples are listed in the following.

IC50 (SJSA-1): ≤ 71 nM | IC50 (GST-tag full length MDM2): ≤ 3.6 nM
SMILES: COc1cc(C(=O)O)ccc1NC(=O)[C@@H]1N[C@@H](CC(C)(C)CF)[C@@]2(C(=O)Nc3cc(Cl)ccc32)C1c1cccc(Cl)c1F (mixture of isomers) [Example 19, 4-[(2′R,3R,3′S,5′S)-6-chloro-3′-(3-chloro-2-fluoro-phenyl)-5′-(3-fluoro-2,2-dimethyl-propyl)-2-oxo-spiro[indoline-3,4′-pyrrolidine]-2′-carbonyl]amino-3-methoxy-benzoic acid]
